Consider 1 molecule from PMC12073402, “A Selective MAP3K1 Inhibitor Facilitates Discovery of NPM1 as a Member of the Network” (Molecules, 2025).

Assay in all cases: KiNativ kinome profiling in PANC-1 lysate
Holding throughout (assay type): binding

The target in assay [1] is T1, LATS1 (Homo sapiens, UniProt O95835).
T1 construct: we opted to conduct a kinome screen (KiNativ) in PANC-1 cell lysates; endogenous in cells; host or cells: PANC-1 cell lysate
The text has this:
(§1) To assess target engagement and selectivity, we opted to conduct a kinome screen (KiNativ) in PANC-1 cell lysates. This chemical proteomics (chemoproteomics) methodology allows for the evaluation of small-molecule binding to protein kinases in native systems such as cell lysates. KiNativ utilizes a soluble chemical probe comprising ATP linked to biotin through an acyl-phosphate bond. The probe covalently modifies conserved lysine residues found in the ATP binding site of essentially all protein kinases (Figure 2A). To profile a kinase inhibitor, cell lysates are treated with a vehicle control or inhibitor prior to addition of the desthiobiotin ATP probe. The ATP probe occupies the ATP binding site in the kinase, which enables the conserved lysines to be biotinylated. […] The cell lysates are digested with a protease (trypsin), biotinylated peptides are affinity-enriched on streptavidin beads, and the labeled peptides are analyzed by liquid chromatography–tandem MS (Figure 2B). If an inhibitor binds to a kinase, it competes with the ATP, thus resulting in a loss of that kinase-associated peptide signal, allowing for the quantitative measurement of inhibitor binding. Unlike recombinant enzyme assays, KiNativ IC50 values are a direct measure of active site binding instead of enzymatic activity.
(§2) Kinome profiling quantified the activity of 51-106 against >300 kinases in the PANC-1 cells. The results summarized in Figure 2C are the average of duplicate control and duplicate treated samples with 5 μM of 51-106 or DMSO.
(§3) KiNativ assay with 51-106.
(§4) ATP Loop: ATP binding loop
(§5) Activation Loop: Activation loop
(§6) ATP: ATP site in non-canonical kinase (e.g. lipid kinase)
(§7) Protein Kinase Domain: Other lysine within kinase domain, possibly not in ATP binding site
(§8) Other: Labeling of residue outside of the protein kinase domain, possibly not in ATP binding site
(§9) No change. NB = No Binding (≤ 0)
(§10) >100% increase in MS signal (>2 fold increase)
(§11) Data points inhibited […] & not considered significant are left uncolored
(§12) Note: This KiNativ dataset is the result of an analysis of duplicate treated samples and control samples.
(§13) The % changes in MS signals being reported are statistically significant (Student T -test score < 0.04)

In assay [2] the target is T2, EphB2 (Homo sapiens, UniProt P29323).
T2 construct: endogenous in cells; host or cells: PANC-1 lysate
To be noted: ATP Loop.
Excerpt: as §1, §2, §3, §4, §5, §6, §7, §8, §9, §10, §11, §12, §13

The subject of assay [3] is RSK1 domain1, RSK2 domain1, RSK3 domain1. The settings on record: 5 µM; Lys2; DLKPENILLDEEGHIK
Excerpt: as §1, §2, §3, §4, §5, §6, §7, §8, §9, §10, §11, §12, §13

Assay [4] addresses T3, CDK5 (Homo sapiens, UniProt Q00535).
T3 construct: endogenous in cells; host or cells: PANC-1 cell lysate
Excerpt: as §1, §2, §3, §4, §5, §6, §7, §8, §9, §10, §11, §12, §13

Assay [5] has as its target T4, NEK8 (Homo sapiens, UniProt Q86SG6).
T4 construct: endogenous in cells; host or cells: PANC-1 cell lysate
The settings on record: Lys2.
Excerpt: as §1, §2, §3, §4, §5, §6, §7, §8, §9, §10, §11, §12, §13

Assay [6] concerns the target T5, PFTAIRE2 (Homo sapiens, UniProt Q96Q40).
T5 construct: endogenous in cells; host or cells: PANC-1 cell lysate
The settings on record: Lys2.
Excerpt: as §1, §2, §3, §4, §5, §6, §7, §8, §9, §10, §11, §12, §13

Assay [7] concerns the target T6, CDK7 (Homo sapiens, UniProt P50613).
T6 construct: endogenous in cells; host or cells: PANC-1 cell lysate
Excerpt: as §1, §2, §3, §4, §5, §6, §7, §8, §9, §10, §11, §12, §13

The target in assay [8] is T7, PHKg2 (Homo sapiens, UniProt P15735).
T7 construct: endogenous in cells; host or cells: PANC-1 cell lysate
To be noted: Lys1.
Excerpt: as §1, §2, §3, §4, §5, §6, §7, §8, §9, §10, §11, §12, §13

The test system of assay [9] is FGFR1, FMS, PDGFRb, TYRO3. To be noted: 5 µM; Lys1; VAVKMLK.
Excerpt: as §1, §2, §3, §4, §5, §6, §7, §8, §9, §10, §11, §12, §13

For assay [10], the target named is T8, YES (Homo sapiens, UniProt P07947).
T8 construct: endogenous in cells; host or cells: PANC-1 cell lysate
To be noted: Lys1.
Excerpt: as §1, §2, §3, §4, §5, §6, §7, §8, §9, §10, §11, §12, §13

The target of assay [11] is T9, GCN2 domain2 (Homo sapiens, UniProt Q9P2K8).
T9 construct: we opted to conduct a kinome screen (KiNativ) in PANC-1 cell lysates; endogenous in cells; host or cells: PANC-1 cell lysate
Excerpt: as §1, §2, §3, §4, §5, §6, §7, §8, §9, §10, §11, §12, §13

Assay [12] concerns the target T10, BRAF, BRAF V600E (Homo sapiens, UniProt P15056).
T10 construct: endogenous in cells; host or cells: PANC-1 cell lysate
To be noted: Lys2.
Excerpt: as §1, §2, §3, §4, §5, §6, §7, §8, §9, §10, §11, §12, §13

Assay [13] has as its system PKCa, PKCb. The settings on record: 5 µM; Lys2; DLKLDNVMLDSEGHIK
Excerpt: as §1, §2, §3, §4, §5, §6, §7, §8, §9, §10, §11, §12, §13

Assay [14] deals with T11, IKKb (Homo sapiens, UniProt O14920).
T11 construct: we opted to conduct a kinome screen (KiNativ) in PANC-1 cell lysates; endogenous in cells; host or cells: PANC-1 cell lysate
T11 sequence (O14920 1-756): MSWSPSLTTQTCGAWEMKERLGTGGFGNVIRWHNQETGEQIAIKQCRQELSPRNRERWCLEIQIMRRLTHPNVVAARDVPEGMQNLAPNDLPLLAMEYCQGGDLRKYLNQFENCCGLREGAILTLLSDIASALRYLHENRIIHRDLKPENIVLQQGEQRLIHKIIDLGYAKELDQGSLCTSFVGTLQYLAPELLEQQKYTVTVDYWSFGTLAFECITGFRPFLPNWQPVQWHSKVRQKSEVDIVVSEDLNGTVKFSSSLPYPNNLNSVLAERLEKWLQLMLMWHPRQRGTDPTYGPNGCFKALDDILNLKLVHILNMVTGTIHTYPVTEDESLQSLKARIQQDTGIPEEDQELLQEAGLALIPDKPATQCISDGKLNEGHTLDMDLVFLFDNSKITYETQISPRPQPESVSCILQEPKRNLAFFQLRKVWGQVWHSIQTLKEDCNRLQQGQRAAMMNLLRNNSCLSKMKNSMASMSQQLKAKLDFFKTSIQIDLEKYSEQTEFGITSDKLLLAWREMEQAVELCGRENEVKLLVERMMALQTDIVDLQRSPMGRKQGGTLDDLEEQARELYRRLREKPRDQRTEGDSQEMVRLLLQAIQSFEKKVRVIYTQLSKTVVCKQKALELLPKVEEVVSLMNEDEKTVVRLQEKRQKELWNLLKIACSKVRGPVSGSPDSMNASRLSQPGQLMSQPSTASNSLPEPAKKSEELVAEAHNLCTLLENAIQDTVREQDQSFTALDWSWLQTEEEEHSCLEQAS
Excerpt: as §1, §2, §3, §4, §5, §6, §7, §8, §9, §10, §11, §12, §13

Assay [15] deals with T12, RAF1 (Homo sapiens, UniProt P04049).
T12 construct: endogenous in cells; host or cells: PANC-1 cell lysate
To be noted: Lys2.
Excerpt: as §1, §2, §3, §4, §5, §6, §7, §8, §9, §10, §11, §12, §13

For assay [16], the target named is T13, LOK (Homo sapiens, UniProt O94804).
T13 construct: we opted to conduct a kinome screen (KiNativ) in PANC-1 cell lysates; endogenous in cells; host or cells: PANC-1 cell lysate
Excerpt: as §1, §2, §3, §4, §5, §6, §7, §8, §9, §10, §11, §12, §13

In general, inhibition refers to the relative decrease from the control value, in per cent. A low value points to a response near the control.

T6 sequence (P50613 whole entry): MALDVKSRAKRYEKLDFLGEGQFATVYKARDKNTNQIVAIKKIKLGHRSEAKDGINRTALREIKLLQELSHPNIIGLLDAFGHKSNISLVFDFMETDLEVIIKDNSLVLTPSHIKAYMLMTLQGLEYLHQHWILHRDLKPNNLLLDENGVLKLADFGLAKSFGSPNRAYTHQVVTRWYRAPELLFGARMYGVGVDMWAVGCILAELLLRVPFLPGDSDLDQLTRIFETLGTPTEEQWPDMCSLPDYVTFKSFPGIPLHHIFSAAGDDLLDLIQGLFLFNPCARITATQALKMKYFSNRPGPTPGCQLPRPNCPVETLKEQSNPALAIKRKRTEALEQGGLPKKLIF
T1 sequence (O95835 whole entry): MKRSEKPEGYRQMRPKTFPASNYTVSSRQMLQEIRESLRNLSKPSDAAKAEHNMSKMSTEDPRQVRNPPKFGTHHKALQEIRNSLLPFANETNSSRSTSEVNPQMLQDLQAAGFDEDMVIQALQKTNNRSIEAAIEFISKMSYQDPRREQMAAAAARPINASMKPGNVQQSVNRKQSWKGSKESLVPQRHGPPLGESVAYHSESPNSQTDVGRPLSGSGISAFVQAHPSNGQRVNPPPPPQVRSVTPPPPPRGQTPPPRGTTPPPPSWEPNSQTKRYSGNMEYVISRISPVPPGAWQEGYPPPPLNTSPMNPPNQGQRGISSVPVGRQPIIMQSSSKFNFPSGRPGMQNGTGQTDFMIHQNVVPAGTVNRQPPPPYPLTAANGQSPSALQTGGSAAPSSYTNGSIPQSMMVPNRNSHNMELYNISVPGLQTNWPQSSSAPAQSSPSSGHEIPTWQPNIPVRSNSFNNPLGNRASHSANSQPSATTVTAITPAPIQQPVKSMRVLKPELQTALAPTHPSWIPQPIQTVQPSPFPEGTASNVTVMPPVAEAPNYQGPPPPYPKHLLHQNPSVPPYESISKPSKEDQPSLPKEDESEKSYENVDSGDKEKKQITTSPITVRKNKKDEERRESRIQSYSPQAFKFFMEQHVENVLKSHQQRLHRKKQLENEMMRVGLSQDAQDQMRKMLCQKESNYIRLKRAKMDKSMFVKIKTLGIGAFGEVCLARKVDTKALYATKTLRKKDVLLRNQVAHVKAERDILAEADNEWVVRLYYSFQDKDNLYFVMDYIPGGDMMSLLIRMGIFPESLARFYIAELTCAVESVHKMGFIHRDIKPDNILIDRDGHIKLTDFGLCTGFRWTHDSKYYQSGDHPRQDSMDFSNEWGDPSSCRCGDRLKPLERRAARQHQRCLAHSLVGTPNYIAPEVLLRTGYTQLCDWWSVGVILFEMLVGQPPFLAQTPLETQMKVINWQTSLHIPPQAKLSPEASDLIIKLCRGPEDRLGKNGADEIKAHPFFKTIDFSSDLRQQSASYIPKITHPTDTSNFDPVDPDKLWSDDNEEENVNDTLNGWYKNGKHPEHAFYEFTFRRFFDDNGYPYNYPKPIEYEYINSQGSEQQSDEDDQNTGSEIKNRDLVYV
T3 sequence (Q00535 whole entry): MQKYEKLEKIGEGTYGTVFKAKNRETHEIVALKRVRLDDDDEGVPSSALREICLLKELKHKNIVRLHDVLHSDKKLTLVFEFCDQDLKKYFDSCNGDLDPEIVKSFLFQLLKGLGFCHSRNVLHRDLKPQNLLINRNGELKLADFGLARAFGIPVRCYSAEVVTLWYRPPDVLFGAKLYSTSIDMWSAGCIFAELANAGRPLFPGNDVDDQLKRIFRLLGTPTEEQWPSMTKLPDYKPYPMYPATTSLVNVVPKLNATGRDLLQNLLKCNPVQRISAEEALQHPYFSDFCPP
T13 sequence (O94804 whole entry): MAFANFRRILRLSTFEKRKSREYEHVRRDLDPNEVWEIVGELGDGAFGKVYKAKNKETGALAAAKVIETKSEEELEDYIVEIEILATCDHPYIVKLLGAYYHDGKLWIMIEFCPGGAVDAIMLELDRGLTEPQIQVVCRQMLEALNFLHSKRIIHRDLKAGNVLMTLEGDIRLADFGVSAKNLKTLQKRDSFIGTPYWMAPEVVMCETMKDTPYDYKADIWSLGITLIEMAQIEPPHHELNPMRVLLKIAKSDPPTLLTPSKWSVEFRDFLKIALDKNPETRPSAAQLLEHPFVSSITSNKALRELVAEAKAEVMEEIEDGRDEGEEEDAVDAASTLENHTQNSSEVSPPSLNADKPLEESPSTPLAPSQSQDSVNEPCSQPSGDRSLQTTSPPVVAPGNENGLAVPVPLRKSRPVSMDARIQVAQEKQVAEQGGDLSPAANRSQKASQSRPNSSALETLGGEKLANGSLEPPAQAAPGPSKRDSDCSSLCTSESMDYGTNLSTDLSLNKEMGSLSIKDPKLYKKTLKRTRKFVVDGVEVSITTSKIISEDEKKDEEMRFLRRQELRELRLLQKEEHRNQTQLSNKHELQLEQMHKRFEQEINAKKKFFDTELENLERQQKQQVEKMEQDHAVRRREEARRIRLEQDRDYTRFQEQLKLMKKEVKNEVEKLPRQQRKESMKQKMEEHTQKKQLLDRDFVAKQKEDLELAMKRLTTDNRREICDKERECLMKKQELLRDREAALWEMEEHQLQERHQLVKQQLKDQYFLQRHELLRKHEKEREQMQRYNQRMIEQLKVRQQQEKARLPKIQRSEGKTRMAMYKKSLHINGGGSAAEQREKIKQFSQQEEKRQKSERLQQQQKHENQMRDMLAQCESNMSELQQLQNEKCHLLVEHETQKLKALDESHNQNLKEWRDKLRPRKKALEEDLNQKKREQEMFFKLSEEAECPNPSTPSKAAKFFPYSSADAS
T9 sequence (Q9P2K8 whole entry, the tested form may be a part): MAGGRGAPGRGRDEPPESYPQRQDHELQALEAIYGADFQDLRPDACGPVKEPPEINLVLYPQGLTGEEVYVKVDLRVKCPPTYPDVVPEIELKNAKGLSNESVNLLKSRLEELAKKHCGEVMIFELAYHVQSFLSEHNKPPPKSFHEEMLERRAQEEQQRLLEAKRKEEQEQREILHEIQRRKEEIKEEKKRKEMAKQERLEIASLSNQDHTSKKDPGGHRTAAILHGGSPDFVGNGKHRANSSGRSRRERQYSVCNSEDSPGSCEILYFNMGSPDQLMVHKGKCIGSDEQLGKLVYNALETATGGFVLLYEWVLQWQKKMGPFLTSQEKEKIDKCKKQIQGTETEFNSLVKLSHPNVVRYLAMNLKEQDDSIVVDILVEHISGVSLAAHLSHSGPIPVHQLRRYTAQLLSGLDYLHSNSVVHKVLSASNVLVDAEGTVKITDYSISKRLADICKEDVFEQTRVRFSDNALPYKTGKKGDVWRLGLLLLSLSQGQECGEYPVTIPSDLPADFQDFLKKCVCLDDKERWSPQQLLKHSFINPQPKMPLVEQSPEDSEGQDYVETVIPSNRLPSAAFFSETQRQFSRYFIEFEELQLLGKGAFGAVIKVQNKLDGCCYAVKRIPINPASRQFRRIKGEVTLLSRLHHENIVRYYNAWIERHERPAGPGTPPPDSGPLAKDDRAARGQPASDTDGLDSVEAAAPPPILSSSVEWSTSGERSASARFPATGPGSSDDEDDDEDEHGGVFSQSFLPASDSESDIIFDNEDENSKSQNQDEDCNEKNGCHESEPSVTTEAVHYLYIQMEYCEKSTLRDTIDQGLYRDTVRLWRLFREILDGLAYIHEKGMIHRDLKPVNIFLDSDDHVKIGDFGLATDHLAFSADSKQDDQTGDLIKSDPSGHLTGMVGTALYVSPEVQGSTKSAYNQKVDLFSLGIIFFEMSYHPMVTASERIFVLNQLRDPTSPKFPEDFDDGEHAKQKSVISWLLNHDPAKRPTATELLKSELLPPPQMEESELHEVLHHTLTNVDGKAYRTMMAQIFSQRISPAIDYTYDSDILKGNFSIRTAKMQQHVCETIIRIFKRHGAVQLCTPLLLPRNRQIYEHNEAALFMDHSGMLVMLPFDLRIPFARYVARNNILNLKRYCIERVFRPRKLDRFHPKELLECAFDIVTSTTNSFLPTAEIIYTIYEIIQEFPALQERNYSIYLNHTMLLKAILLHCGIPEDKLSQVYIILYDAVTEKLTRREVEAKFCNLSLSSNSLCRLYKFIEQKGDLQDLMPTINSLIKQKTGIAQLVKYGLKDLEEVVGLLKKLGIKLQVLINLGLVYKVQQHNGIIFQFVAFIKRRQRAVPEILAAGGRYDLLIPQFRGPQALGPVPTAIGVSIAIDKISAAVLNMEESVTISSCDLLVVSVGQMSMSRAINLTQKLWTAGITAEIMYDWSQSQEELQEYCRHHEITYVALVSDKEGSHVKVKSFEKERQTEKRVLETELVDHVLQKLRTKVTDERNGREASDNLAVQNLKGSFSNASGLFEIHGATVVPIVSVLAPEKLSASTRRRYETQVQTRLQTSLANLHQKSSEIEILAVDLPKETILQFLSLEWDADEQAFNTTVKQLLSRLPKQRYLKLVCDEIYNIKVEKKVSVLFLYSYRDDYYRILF
T5 sequence (Q96Q40 whole entry): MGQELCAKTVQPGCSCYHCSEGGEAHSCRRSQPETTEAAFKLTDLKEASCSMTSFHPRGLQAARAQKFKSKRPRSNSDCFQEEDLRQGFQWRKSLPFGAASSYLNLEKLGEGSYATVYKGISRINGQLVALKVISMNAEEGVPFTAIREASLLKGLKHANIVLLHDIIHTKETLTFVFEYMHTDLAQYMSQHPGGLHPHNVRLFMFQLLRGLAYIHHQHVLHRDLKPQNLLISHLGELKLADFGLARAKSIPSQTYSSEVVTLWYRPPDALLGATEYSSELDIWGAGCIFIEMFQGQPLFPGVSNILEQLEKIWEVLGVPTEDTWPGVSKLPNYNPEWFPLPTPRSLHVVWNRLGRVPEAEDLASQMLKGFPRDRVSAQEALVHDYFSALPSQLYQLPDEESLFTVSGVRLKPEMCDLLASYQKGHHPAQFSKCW

For the molecule `Cn1cc(-c2cnc3ccc(NC(=O)Nc4ccc(F)c(C(F)(F)F)c4)cc3n2)cn1` [51-106, 1-(4-Fluoro-3-(trifluoromethyl)phenyl)-3-(3-(1-methyl-1H-pyrazol-4-yl)quinoxalin-6-yl)urea], the “% Inhibition” value is on record as “NB (NB = No Binding (≤ 0))” in assay [1] (5 µM, Lys2, DIKPDNILIDR); “NB (NB = No Binding (≤ 0))” in assay [3]; “NB (NB = No Binding (≤ 0))” in assay [9]; “NB (NB = No Binding (≤ 0))” in assay [13]; “NB (NB = No Binding (≤ 0))” in assay [16] (5 µM, Lys1, NKETGALAAAKVIETK). Besides, the inhibition at 5 µM in [1] (Lys1, […]) was ≤ 0%; in assay [2] it was ≤ 0%; in assay [4] (Lys1, NRETHEIVALKR), ≤ 0%; in assay [4] (Lys2, DLKPQNLLINR), 6.5%; in assay [5], ≤ 0%; in assay [6], ≤ 0%. For the same molecule, the inhibition at 5 µM in assay [7] (Lys1, DKNTNQIVAIKK) was 16.6%; in [7] (Lys2, DLKPNNLLLDENGVLK), 1.6%; in assay [8], ≤ 0%; in assay [10], 16%; in assay [11] (Lys1, LDGCCYAVKR) it was 5.3%; in assay [11] (Lys2, DLKPVNIFLDSDDHVK) it was ≤ 0%. Also, the inhibition at 5 µM in [12] is 0.5%; in assay [14] (Lys1, WHNQETGEQIAIKQCR), 0.1%; in assay [14] (Lys2, DLKPENIVLQQGEQR), ≤ 0%; in assay [15] it was ≤ 0%; in assay [16] (Lys2, […]), ≤ 0%. Besides, in assay [14] (5 μM, PANC-1 lysate), the “inhibition of IKKβ (in words)” value is “not inhibited”.
